# Reference: PubChem BioAssay AID2060886 (Molecular Pharmacology Branch, DTP, NCI, 2025)
# Test system: 653999-131-R-J2-PDC complex spheroids, growth inhibition
# Assay: Anticancer human tumor 653999-131-R-J2-PDC patient-derived lung adenocarcinoma cell line growth inhibition [RAS]
# Settings: for IC50: curve of first compound; for viability, T/C: stronger effect = lower value
# How it was run: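 Tumour cells grown as complex spheroids with HUVEC endothelial cells and mesenchymal stem cells, treated with RAS pathway inhibitor combinations. Each agent spans half-log steps from near clinical Cmax, or 10 microM where Cmax is unknown.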
# [1] = second compound 0.0316 µM, first compound 0.0316 µM
# [2] = second compound 0.0316 µM, first compound 0.1 µM
# [3] = second compound 0.0316 µM, first compound 0.316 µM
# [4] = second compound 0.0316 µM, first compound 1 µM
# [5] = second compound 0.0316 µM, first compound 3.16 µM
# [6] = second compound 0.0316 µM, first compound 10 µM
# [7] = second compound 0.1 µM, first compound 0.0316 µM
# [8] = second compound 0.1 µM, first compound 0.1 µM
# [9] = second compound 0.1 µM, first compound 0.316 µM
# [10] = second compound 0.1 µM, first compound 1 µM
# [11] = second compound 0.1 µM, first compound 3.16 µM
# [12] = second compound 0.1 µM, first compound 10 µM
# [13] = second compound 0.316 µM, first compound 0.0316 µM
# [14] = second compound 0.316 µM, first compound 0.1 µM
# [15] = second compound 0.316 µM, first compound 0.316 µM
# [16] = second compound 0.316 µM, first compound 1 µM
# [17] = second compound 0.316 µM, first compound 3.16 µM
# [18] = second compound 0.316 µM, first compound 10 µM
# [19] = second compound 1 µM, first compound 0.0316 µM
# [20] = second compound 1 µM, first compound 0.1 µM
# [21] = second compound 1 µM, first compound 0.316 µM
# [22] = second compound 1 µM, first compound 1 µM
# [23] = second compound 1 µM, first compound 3.16 µM
# [24] = second compound 1 µM, first compound 10 µM
# [25] = second compound 3.16 µM, first compound 0.0316 µM
# [26] = second compound 3.16 µM, first compound 0.1 µM
# [27] = second compound 3.16 µM, first compound 0.316 µM
# [28] = second compound 3.16 µM, first compound 1 µM
# [29] = second compound 3.16 µM, first compound 3.16 µM
# [30] = second compound 3.16 µM, first compound 10 µM
# [31] = second compound 10 µM, first compound 0.0316 µM
# [32] = second compound 10 µM, first compound 0.1 µM
# [33] = second compound 10 µM, first compound 0.316 µM
# [34] = second compound 10 µM, first compound 1 µM
# [35] = second compound 10 µM, first compound 3.16 µM
# [36] = second compound 10 µM, first compound 10 µM
# 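Note: spheroids exposed to the agents for seven days before the readout.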
smiles,measurement,setting,value
CC1(O)CCCC1n1c(=O)c(C(F)F)cc2cnc(NC3CCN(S(C)(=O)=O)CC3)nc21 (centres undefined) + C#Cc1c(F)ccc2cc(O)cc(-c3ncc4c(N5CC6CCC(C5)N6)nc(OCC56CCCN5CC(F)C6)nc4c3F)c12,IC50,second compound 0.0316 µM,4780 nM
same,IC50,second compound 0.1 µM,3960 nM
same,IC50,second compound 0.316 µM,< 31.6 nM
same,IC50,second compound 1 µM,< 31.6 nM
same,IC50,second compound 3.16 µM,< 31.6 nM
same,IC50,second compound 10 µM,< 31.6 nM
same,"viability, T/C",[1],71.3%
same,"viability, T/C",[2],54.8%
same,"viability, T/C",[3],62.4%
same,"viability, T/C",[4],57.2%
same,"viability, T/C",[5],63.1%
same,"viability, T/C",[6],29.6%
same,"viability, T/C",[7],69.4%
same,"viability, T/C",[8],49.9%
same,"viability, T/C",[9],51.2%
same,"viability, T/C",[10],52.1%
same,"viability, T/C",[11],58.4%
same,"viability, T/C",[12],24.7%
same,"viability, T/C",[13],49.4%
same,"viability, T/C",[14],42.7%
same,"viability, T/C",[15],42.6%
same,"viability, T/C",[16],45.5%
same,"viability, T/C",[17],49.2%
same,"viability, T/C",[18],27.7%
same,"viability, T/C",[19],40.5%
same,"viability, T/C",[20],31.4%
same,"viability, T/C",[21],32.7%
same,"viability, T/C",[22],34.3%
same,"viability, T/C",[23],34.4%
same,"viability, T/C",[24],24.5%
same,"viability, T/C",[25],29.6%
same,"viability, T/C",[26],25.5%
same,"viability, T/C",[27],21.6%
same,"viability, T/C",[28],23%
same,"viability, T/C",[29],31.4%
same,"viability, T/C",[30],20.7%
same,"viability, T/C",[31],23.2%
same,"viability, T/C",[32],17.1%
same,"viability, T/C",[33],20.6%
same,"viability, T/C",[34],19.7%
same,"viability, T/C",[35],25.6%
same,"viability, T/C",[36],22.7%
CCC(CC)c1cc(NC2CCC(N)C2)n2nccc2n1 (centres undefined) + C#Cc1c(F)ccc2cc(O)cc(-c3ncc4c(N5CC6CCC(C5)N6)nc(OCC56CCCN5CC(F)C6)nc4c3F)c12,IC50,second compound 0.0316 µM,2070 nM
same,IC50,second compound 0.1 µM,1810 nM
same,IC50,second compound 0.316 µM,1580 nM
same,IC50,second compound 1 µM,1290 nM
same,IC50,second compound 3.16 µM,31.6 nM
same,IC50,second compound 10 µM,< 31.6 nM
same,"viability, T/C",[1],91.1%
same,"viability, T/C",[2],110%
same,"viability, T/C",[3],84.8%
same,"viability, T/C",[4],105%
same,"viability, T/C",[5],15.3%
same,"viability, T/C",[6],28.7%
same,"viability, T/C",[7],85.2%
same,"viability, T/C",[8],101%
same,"viability, T/C",[9],93.1%
same,"viability, T/C",[10],80.6%
same,"viability, T/C",[11],14.2%
same,"viability, T/C",[12],28.3%
same,"viability, T/C",[13],71.7%
same,"viability, T/C",[14],75.5%
same,"viability, T/C",[15],75.4%
same,"viability, T/C",[16],72.3%
same,"viability, T/C",[17],14.8%
same,"viability, T/C",[18],17.3%
same,"viability, T/C",[19],56.2%
same,"viability, T/C",[20],57%
same,"viability, T/C",[21],68.7%
same,"viability, T/C",[22],59.2%
same,"viability, T/C",[23],10.7%
same,"viability, T/C",[24],25.3%
same,"viability, T/C",[25],47.2%
same,"viability, T/C",[26],45%
same,"viability, T/C",[27],49.3%
same,"viability, T/C",[28],39.4%
same,"viability, T/C",[29],16%
same,"viability, T/C",[30],27.7%
same,"viability, T/C",[31],36.2%
same,"viability, T/C",[32],33.5%
same,"viability, T/C",[33],20.9%
same,"viability, T/C",[34],31.6%
same,"viability, T/C",[35],9.65%
same,"viability, T/C",[36],13.1%
